This is an account of results in US11999715B2, “ASK1 inhibiting agents” (BIOGEN MA INC., priority 2018, dated 2024).

The target of assay [1] is T1, ASK1/MAP3K5 (Homo sapiens, UniProt Q99683).
T1 sequence (Q99683 1-1374): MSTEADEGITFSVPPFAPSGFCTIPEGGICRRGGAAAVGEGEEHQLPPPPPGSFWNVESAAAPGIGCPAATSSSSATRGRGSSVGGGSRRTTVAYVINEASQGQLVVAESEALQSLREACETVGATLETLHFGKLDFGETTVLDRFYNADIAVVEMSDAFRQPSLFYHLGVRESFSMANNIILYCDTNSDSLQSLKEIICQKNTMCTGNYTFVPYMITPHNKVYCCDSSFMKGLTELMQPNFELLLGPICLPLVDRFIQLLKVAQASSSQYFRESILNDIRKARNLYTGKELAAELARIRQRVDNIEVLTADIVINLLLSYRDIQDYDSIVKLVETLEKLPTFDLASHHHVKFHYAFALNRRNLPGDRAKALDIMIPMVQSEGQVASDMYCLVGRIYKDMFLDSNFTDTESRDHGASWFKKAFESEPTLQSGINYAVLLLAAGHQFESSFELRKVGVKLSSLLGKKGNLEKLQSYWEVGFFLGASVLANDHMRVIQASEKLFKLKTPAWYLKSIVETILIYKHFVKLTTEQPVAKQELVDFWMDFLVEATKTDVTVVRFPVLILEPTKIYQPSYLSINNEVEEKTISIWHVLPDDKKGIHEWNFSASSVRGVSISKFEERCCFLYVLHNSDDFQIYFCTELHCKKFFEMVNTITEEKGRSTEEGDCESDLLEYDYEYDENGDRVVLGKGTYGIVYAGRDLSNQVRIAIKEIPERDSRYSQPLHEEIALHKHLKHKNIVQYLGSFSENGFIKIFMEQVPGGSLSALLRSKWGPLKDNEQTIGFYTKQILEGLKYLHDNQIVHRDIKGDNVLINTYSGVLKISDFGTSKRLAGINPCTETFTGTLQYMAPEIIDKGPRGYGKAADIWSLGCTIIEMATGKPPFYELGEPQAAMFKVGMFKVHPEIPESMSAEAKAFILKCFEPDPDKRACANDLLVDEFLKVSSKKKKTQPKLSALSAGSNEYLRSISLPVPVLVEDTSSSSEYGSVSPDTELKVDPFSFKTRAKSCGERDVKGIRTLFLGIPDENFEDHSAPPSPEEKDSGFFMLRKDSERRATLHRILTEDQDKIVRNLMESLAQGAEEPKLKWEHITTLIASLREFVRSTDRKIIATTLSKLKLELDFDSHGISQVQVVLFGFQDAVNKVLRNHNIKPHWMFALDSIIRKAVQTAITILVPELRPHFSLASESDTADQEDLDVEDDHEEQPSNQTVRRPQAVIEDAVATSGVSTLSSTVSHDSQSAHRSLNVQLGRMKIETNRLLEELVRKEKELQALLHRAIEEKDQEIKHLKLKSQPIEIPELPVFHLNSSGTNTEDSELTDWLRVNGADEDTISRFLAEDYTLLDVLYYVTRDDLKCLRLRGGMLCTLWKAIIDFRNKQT
Kind of assay: ASK1/MAP3K5 kinase assay by Reaction Biology Corp. (headed ASK1 TR-FRET Assay). The assay is classed as biochemical. Particulars: 20 μM myelin basic protein, 10 μM ATP, class symbols. The protocol: Example 111: Brief Description of ASK1 TR-FRET Assay The protein kinase inhibitory activity of the compounds described herein were tested using the ASK1/MAP3K5 assay by Reaction Biology Corp. (Malvern, PA). The assay procedure follows (and is also available on the Reaction Biology Corp. website). Base Reaction Buffer: 20 mM Hepes (pH 7.5), 10 mM MgCl2, 1 mM EGTA, 0.02% Brij35, 0.02 mg/mL BSA, 0.1 mM Na3VO4, 2 mM DTT, 1% DMSO; Substrate: 20 μM of myelin basic protein (MBP) and 10 μM ATP; Protein kinase: ASK1/MAP3K5. Reaction Procedure: • 1. Prepare indicated substrate in freshly prepared Base Reaction Buffer. • 2. Deliver any required cofactors to the substrate solution. • 3. Deliver indicated kinase into the substrate solution and gently mix. • 4. Deliver compounds in DMSO into the kinase reaction mixture by Acoustic; technology (Echo550; nanoliter range), incubate for 20 minutes at room temperature. • 5. Deliver ^33P-ATP (specific activity 10 μCi/μL) into the reaction mixture to initiate the reaction. • 6. Incubate kinase reaction for 2 hours at room temperature. • 7. Reactions are spotted onto P81 ion exchange paper. • 8. Detect kinase activity by filter-binding method.

For assay [2], the target named is T2, ASK1 T838 auto phosphorylation (Homo sapiens, UniProt Q99683).
T2 sequence (Q99683 1-1374): T1 sequence (Q99683 1-1374)
Kind of assay: ASK1 (AUTO PHOS T838) assay, MSD format, in HEK-293T cells transfected with ASK1-V5. It counts as cell-based. The settings on record: ASK1 T838 auto phosphorylation in HEK-293T cells, 1 hr compound incubation; class symbols. The protocol: Example 112: Brief Description of ASK1(AUTO PHOS T838) Assay ASK1 T838 auto phosphorylation was measured in HEK-293T cells using MSD assay format. HEK 293T cells were seeded in 15 cm plates at a density of 18 million cells and 20 mL DMEM with 10% FBS, Pen/Strep media. The plates were incubated at 37° C. overnight. Media on plates was changed to OPTI-MEM, serum free media and cells were transfected with 9 μg of ASK1-V5 tagged full length plasmid using Lipofectamine 2000 (Invitrogen) and the plates were incubated at 37° C. overnight. Cells were trypsinized, counted on Nexcellometer and plated into 96 well tissue culture plates with 100,000 cells/well and 200 μL media. Cells were incubated for 4 hr at 37° C. then ASK1 compounds were added using a HP 300e. Compounds were tested at 20 μM with 3 fold, 10 point dilution points then incubated for 1 hr at 37° C. A lysis buffer (Cell Signaling) was prepared with protease and phosphatase inhibitor and maintained at 4° C. until use. Media from cells was discarded and 120 μL of cold lysis buffer was added to the cells, the plate was shaken 4° C. for 1 hr. Lysate was mixed using Apricot liquid handler; aspirating up and down 16 times at high speed using 50 μL volume. […] Plates were then incubated on a plate shaker overnight at 4° C. Plates were washed 3× with MSD wash buffer and 50 μL of rabbit anti-pASK1 T838 antibody was added to the wells and incubated for 2 hr at room temperature on a plate shaker. Plates were then washed and 50 μL of goat anti-rabbit sulfa-tag (1:500 dilution) was added to wells, and incubated for 1 hr at room temperature on a plate shaker. […] Plates were immediately read on a MSD Instrument Reader where chemoluminescence signal was measured. Data was analyzed using Graph Pad or Genedata, the data was normalized and plotted, % activity versus log of compound concentration. The IC50 values were obtained from a 4 parameter fit. The compounds described herein were tested for in the above cell-based assay.

`COc1nn(C)cc1C(=O)Nc1cccc(-c2nncn2C(C)CO)n1` (racemic) [Example 35, rac-N-(6-(4-(1-Hydroxypropan-2-yl)-4H-1,2,4-triazol-3-yl)pyridin-2-yl)-3-methoxy-1-methyl-1H-pyrazole-4-carboxamide]: the IC50 in assay [1] was at most 100 nM; in assay [2] it was 1000 to 10000 nM. Turning to `COc1nn(C)cc1C(=O)Nc1cccc(-c2nncn2[C@@H](C)C(F)F)n1` (single isomer, unassigned) [Example 27], the IC50 in assay [1] was at most 100 nM; in assay [2] it was at most 1000 nM. On the same counts, the results for `COc1nn(C)cc1C(=O)Nc1cccc(-c2nncn2[C@H](C)C(F)F)n1` (single isomer, unassigned) [Example 28] are at most 100 nM and at most 1000 nM. Taken in the same sequence, the figures for `COc1nn(C)cc1C(=O)Nc1cccc(-c2nncn2[C@H]2CCC2(F)F)n1` (single isomer, unassigned) [Example 31] were at most 100 nM and at most 1000 nM. On the same counts, the results for `COc1nn(C)cc1C(=O)Nc1cccc(-c2nncn2[C@@H]2CCC2(F)F)n1` (single isomer, unassigned) [Example 32] are 100 to 1000 nM and at most 1000 nM. As to `COC[C@H](C)n1cnnc1-c1cccc(NC(=O)c2cn(C)nc2OC)n1` (single isomer, unassigned) [Example 33], the IC50 was at most 100 nM in assay [1] and at most 1000 nM in assay [2]. On to `COC[C@@H](C)n1cnnc1-c1cccc(NC(=O)c2cn(C)nc2OC)n1` (single isomer, unassigned) [Example 34], for which the IC50 in assay [1] was 100 to 1000 nM; in assay [2], at most 1000 nM. Taken in the same sequence, the figures for `COc1nn(C)cc1C(=O)Nc1cccc(-c2nncn2[C@H](C)CO)n1` (single isomer, unassigned) [Example 36] were at most 100 nM and at most 1000 nM.

Consider `COc1nn(C)cc1C(=O)Nc1cccc(-c2nncn2[C@@H](C)CO)n1` (single isomer, unassigned) [Example 37], for which the IC50 in assay [1] is at most 100 nM; in assay [2], 1000 to 10000 nM.

`COc1nn(C)cc1C(=O)Nc1cccc(-c2nncn2[C@H]2CCN(C(=O)OC(C)(C)C)C2)n1` (single isomer, unassigned) [Example 40]: the results for the IC50 in assay [1] and in assay [2] were 100 to 1000 nM and 1000 to 10000 nM, respectively.

Regarding `COc1nn(C)cc1C(=O)Nc1cccc(-c2nncn2[C@@H]2CCOC2)n1` (single isomer, unassigned) [Example 109], the results for the concentration for half-maximal inhibition (IC50) in assay [1] and in assay [2] were at most 100 nM and at most 1000 nM, respectively. For the molecule `COc1nn(C)cc1C(=O)Nc1cccc(-c2nncn2[C@H]2CCOC2)n1` (single isomer, unassigned) [Example 110], the concentration for half-maximal inhibition (IC50) in assay [1] is at most 100 nM; in assay [2] it was at most 1000 nM. Turning to `CCOc1nn(C)cc1C(=O)Nc1cccc(-c2nncn2C(C)C)n1` [Example 3, 3-Ethoxy-N-(6-(4-isopropyl-4H-1,2,4-triazol-3-yl)pyridin-2-yl)-1-methyl-1H-pyrazole-4-carboxamide], the IC50 in assay [1] is at most 100 nM; in assay [2], at most 1000 nM. On the same counts, the results for `COCc1nn(C)cc1C(=O)Nc1cccc(-c2nncn2C(C)C)n1` [Example 4, N-(6-(4-Isopropyl-4H-1,2,4-triazol-3-yl)pyridin-2-yl)-3-(methoxymethyl)-1-methyl-1H-pyrazole-4-carboxamide] are 100 to 1000 nM and 1000 to 10000 nM. Taken in the same sequence, the figures for `CC(C)n1cnnc1-c1cccc(NC(=O)c2cn(C)nc2C(F)(F)F)n1` [Example 5, N-(6-(4-Isopropyl-4H-1,2,4-triazol-3-yl)pyridin-2-yl)-1-methyl-3-(trifluoromethyl)-1H-pyrazole-4-carboxamide] were 100 to 1000 nM and 1000 to 10000 nM. For the molecule `CC(C)n1cnnc1-c1cccc(NC(=O)c2cn(C)nc2C(F)F)n1` [Example 6, 3-(Difluoromethyl)-N-(6-(4-isopropyl-4H-1,2,4-triazol-3-yl)pyridin-2-yl)-1-methyl-1H-pyrazole-4-carboxamide], the IC50 in assay [1] was 100 to 1000 nM; in assay [2], at most 1000 nM. Taken in the same sequence, the figures for `COc1nn(Cc2ccccc2)cc1C(=O)Nc1cccc(-c2nncn2C(C)C)n1` [Example 8, 1-Benzyl-N-(6-(4-isopropyl-4H-1,2,4-triazol-3-yl)pyridin-2-yl)-3-methoxy-1H-pyrazole-4-carboxamide] were at most 100 nM and at most 1000 nM. Taken in the same sequence, the figures for `CC(C)n1cnnc1-c1cccc(NC(=O)c2cnn(C(C)(C)C)c2)n1` [Example 9, 1-(tert-Butyl)-N-(6-(4-isopropyl-4H-1,2,4-triazol-3-yl)pyridin-2-yl)-1H-pyrazole-4-carboxamide] were 100 to 1000 nM and at most 1000 nM. With `COc1nn(C)cc1C(=O)Nc1cccc(-c2nncn2C(C)C(F)(F)F)n1` (stereo not shown) [Example 10, 3-Methoxy-1-methyl-N-(6-(4-(1,1,1-trifluoropropan-2-yl)-4H-1,2,4-triazol-3-yl)pyridin-2-yl)-1H-pyrazole-4-carboxamide], the IC50 in assay [2] was at most 1000 nM. Same read-out and setting: the same measure for `CCCn1cc(C(=O)Nc2cccc(-c3nncn3C(C)C)n2)c(OC)n1` [Example 58, N-(6-(4-Isopropyl-4H-1,2,4-triazol-3-yl)pyridin-2-yl)-3-methoxy-1-propyl-1H-pyrazole-4-carboxamide]: at most 1000 nM.

For the molecule `COc1nn(-c2ccccc2)cc1C(=O)Nc1cccc(-c2nncn2C(C)C)n1` [Example 60, N-(6-(4-Isopropyl-4H-1,2,4-triazol-3-yl)pyridin-2-yl)-3-methoxy-1-phenyl-1H-pyrazole-4-carboxamide], in assay [2], the IC50 is at most 1000 nM.

In assay [2], `COc1nn(CC2CC2)cc1C(=O)Nc1cccc(-c2cncn2C(C)C)n1` [Example 91, 1-(Cyclopropylmethyl)-N-(6-(1-isopropyl-1H-imidazol-5-yl)pyridin-2-yl)-3-methoxy-1H-pyrazole-4-carboxamide] registered an IC50 of at most 1000 nM.

In general, IC50 refers to the midpoint of a concentration-inhibition curve. Low readings indicate higher potency, high ones lower potency.
